# Test results reported in patent publication US10758534B2 (Vertex Pharmaceuticals Incorporated, priority 2014, dated 2020).
# Target: T1, F508del (Homo sapiens, UniProt P13569, DEL508-508)
# T1 construct: expressed in transfected cells
# Assay: Protocol 1: membrane potential optical assay (FLIPR III, voltage sensing dye), identification of potentiator compounds
# Type: cell-based
# Details: Table 3, compounds of Table 1
# Source text: Membrane Potential Optical Methods for Assaying F508del Modulation Properties of Compounds
# The assay utilizes fluorescent voltage sensing dyes to measure changes in membrane potential using a fluorescent plate reader (e.g., FLIPR III, Molecular Devices, Inc.) as a readout for increase in functional F508del in NIH 3T3 cells. The driving force for the response is the creation of a chloride ion gradient in conjunction with channel activation by a single liquid addition step after the cells have previously been treated with compounds and subsequently loaded with a voltage sensing dye.
# Identification of Potentiator Compounds
# To identify potentiators of F508del, a double-addition HTS assay format was developed. This HTS assay utilizes fluorescent voltage sensing dyes to measure changes in membrane potential on the FLIPR III as a measurement for increase in gating (conductance) of F508del in temperature-corrected F508del NIH 3T3 cells. The driving force for the response is a Cl^− ion gradient in conjunction with channel activation with forskolin in a single liquid addition step using a fluorescent plate reader such as FLIPR III after the cells have previously been treated with potentiator compounds (or DMSO vehicle control) and subsequently loaded with a redistribution dye.
# Bath Solution #1: (in mM) NaCl 160, KCl 4.5, CaCl2 2, MgCl2 1, HEPES 10, pH 7.4 with NaOH.
# Chloride-free bath solution: Chloride salts in Bath Solution #1 (above) are substituted with gluconate salts.
# NIH3T3 mouse fibroblasts stably expressing F508del are used for optical measurements of membrane potential. The cells are maintained at 37° C. in 5% CO2 and 90% humidity in Dulbecco's modified Eagle's medium supplemented with 2 mM glutamine, 10% fetal bovine serum, 1×NEAA, β-ME, 1× pen/strep, and 25 mM HEPES in 175 cm^2 culture flasks. For all optical assays, the cells were seeded at ˜20,000/well in 384-well matrigel-coated plates and cultured for 2 hrs at 37° C. before culturing at 27° C. for 24 hrs. for the potentiator assay. For the correction assays, the cells are cultured at 27° C. or 37° C. with and without compounds for 16-24 hours.
# T1 sequence (P13569 with tags, fused parts or gaps DEL508-508): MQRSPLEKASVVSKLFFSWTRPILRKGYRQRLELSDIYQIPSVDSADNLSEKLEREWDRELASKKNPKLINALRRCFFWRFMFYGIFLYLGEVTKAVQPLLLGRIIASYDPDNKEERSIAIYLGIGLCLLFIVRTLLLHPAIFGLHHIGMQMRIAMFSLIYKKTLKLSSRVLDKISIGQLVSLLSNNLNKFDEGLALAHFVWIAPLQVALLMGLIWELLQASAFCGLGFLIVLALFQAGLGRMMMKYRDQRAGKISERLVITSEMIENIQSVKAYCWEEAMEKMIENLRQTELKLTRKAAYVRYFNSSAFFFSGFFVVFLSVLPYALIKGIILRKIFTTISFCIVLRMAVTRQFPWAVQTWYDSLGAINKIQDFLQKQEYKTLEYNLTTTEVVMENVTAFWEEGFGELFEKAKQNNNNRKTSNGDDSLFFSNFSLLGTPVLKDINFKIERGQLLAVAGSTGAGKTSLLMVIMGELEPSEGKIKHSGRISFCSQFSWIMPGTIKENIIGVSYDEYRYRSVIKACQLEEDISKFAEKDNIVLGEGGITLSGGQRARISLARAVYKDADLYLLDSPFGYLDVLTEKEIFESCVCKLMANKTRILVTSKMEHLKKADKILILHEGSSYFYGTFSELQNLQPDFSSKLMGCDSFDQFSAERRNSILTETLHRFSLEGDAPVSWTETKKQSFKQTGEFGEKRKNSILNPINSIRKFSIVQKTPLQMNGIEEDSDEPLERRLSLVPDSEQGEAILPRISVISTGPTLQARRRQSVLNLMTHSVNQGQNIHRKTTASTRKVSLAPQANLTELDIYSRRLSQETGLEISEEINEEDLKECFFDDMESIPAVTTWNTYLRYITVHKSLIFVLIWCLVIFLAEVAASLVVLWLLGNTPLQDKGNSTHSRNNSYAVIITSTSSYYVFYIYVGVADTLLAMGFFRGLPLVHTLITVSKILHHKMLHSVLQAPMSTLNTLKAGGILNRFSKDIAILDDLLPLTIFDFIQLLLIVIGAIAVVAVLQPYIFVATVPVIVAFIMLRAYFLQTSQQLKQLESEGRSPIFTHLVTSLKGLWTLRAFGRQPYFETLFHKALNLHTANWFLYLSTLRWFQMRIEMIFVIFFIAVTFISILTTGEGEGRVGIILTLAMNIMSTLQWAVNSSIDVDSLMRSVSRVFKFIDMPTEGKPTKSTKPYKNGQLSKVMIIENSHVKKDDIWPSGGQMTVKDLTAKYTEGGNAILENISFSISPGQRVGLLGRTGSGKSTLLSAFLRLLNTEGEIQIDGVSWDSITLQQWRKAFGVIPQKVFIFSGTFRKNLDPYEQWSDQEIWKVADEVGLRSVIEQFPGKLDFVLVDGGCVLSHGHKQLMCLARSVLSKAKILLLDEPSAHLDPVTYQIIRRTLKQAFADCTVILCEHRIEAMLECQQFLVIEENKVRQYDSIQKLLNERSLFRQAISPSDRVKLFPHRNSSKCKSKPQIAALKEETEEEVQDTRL
row,EC30,SMILES
1,+++ (“+++” means <3 uM),"CC(C)CC(C)Nc1ccc(-c2ccc(C(=O)NS(=O)(=O)c3cccc(N)n3)c(N3[C@H](C)CC[C@@H]3C)n2)cn1 (stereo in doubt) [Compound 1463, N-[(6-amino-2-pyridyl)sulfonyl]-6-[6-[[(1 S)-1,3-dimethylbutyl]amino]-3-pyridyl]-2-[(2S,5R)-2,5-dimethylpyrrolidin-1-yl]pyridine-3-carboxamide]"
2,+++ (“+++” means <3 uM),"CCN(CC)c1ccc(-c2ccc(C(=O)NS(=O)(=O)c3cccc(N)n3)c(N3CC(C)CC3(C)C)n2)cn1 (stereo not shown) [Compound 796, N-[(6-amino-2-pyridyl)sulfonyl]-6-[6-(diethylamino)-3-pyridyl]-2-(2,2,4-trimethylpyrrolidin-1-yl)pyridine-3-carboxamide]"
3,+ (“+” means greater than 10 uM),"CC(C)(C)c1cc(C(=O)NS(=O)(=O)c2cccc(N)c2)n(Cc2ccc(Cl)cc2Cl)n1 [Compound 797, N-(3-aminophenyl)sulfonyl-5-tert-butyl-2-[(2,4-dichlorophenyl)methyl]pyrazole-3-carboxamide]"
4,+++ (“+++” means <3 uM),"COc1ncccc1S(=O)(=O)NC(=O)c1ccc(-c2cc(F)cc(OC(C)C)c2)nc1-c1ccc(C)cc1 [Compound 798, 6-(3-fluoro-5-isopropoxy-phenyl)-N-[(2-methoxy-3-pyridyl)sulfonyl]-2-(p-tolyl)pyridine-3-carboxamide]"
5,+ (“+” means greater than 10 uM),"CC(c1ccccc1)n1nc(C(C)(C)C)cc1C(=O)NS(=O)(=O)c1cccc(N)c1 (stereo not shown) [Compound 799, N-(3-aminophenyl)sulfonyl-5-ter-butyl-2-(1-phenylethyl)pyrazole-3-carboxamide]"
6,++ (“++” means between 3 uM and 10 uM),"CC1CCN(c2nc3c(cc2C(=O)NS(=O)(=O)c2ccn[nH]2)CCCC3(C)C)CC1 [Compound 800, 8,8-dimethyl-2-(4-methyl-1-piperidyl)-N-(1H-pyrazol-5-ylsulfonyl)-6,7-dihydro-5H-quinoline-3-carboxamide]"
7,+ (“+” means greater than 10 uM),"Cc1cc(C)c(Oc2nc(-c3cccc(CN)c3)ccc2C(=O)NS(=O)(=O)c2cccc(N)n2)c(C)c1 [Compound 801, 6-[3-(aminomethyl)phenyl]-N-[(6-amino-2-pyridyl)sulfonyl]-2-(2,4,6-trimethylphenoxy)pyridine-3-carboxamide]"
8,+++ (“+++” means <3 uM),"Cc1ccc(-c2ccc(C(=O)NS(=O)(=O)c3cccc(N)n3)c(N3CCC(C)CC3)n2)cc1 [Compound 802, N-[(6-amino-2-pyridyl)sulfonyl]-2-(4-methyl-1-piperidyl)-6-(p-tolyl)pyridine-3-carboxamide]"

row,SMILES,EC30
1,"CCC1(C)CC(C)CN1c1nc(-c2cc(F)cc(OCC(C)C)c2)ccc1C(=O)NS(=O)(=O)c1cccc(N)n1 (single isomer, unassigned) [Compound 1729, N-[(6-amino-2-pyridyl)sulfonyl]-2-(2-ethyl-2,4-dimethyl-pyrrolidin-1-yl)-6-(3-fluoro-5-isobutoxy-phenyl)pyridine-3-carboxamide]",+++ (“+++” means <3 uM)
2,"CC[C@]1(C)C[C@H](C)CN1c1nc(-c2cc(F)cc(OCC(C)C)c2)ccc1C(=O)NS(=O)(=O)c1cccc(N)n1 (single isomer, unassigned) [Compound 1817, N-[(6-amino-2-pyridyl)sulfonyl]-2-(2-ethyl-2,4-dimethyl-pyrrolidin-1-yl)-6-(3-fluoro-5-isobutoxy-phenyl)pyridine-3-carboxamide]",+++ (“+++” means <3 uM)
3,"CC(C)COc1cc(F)cc(-c2ccc(C(=O)NS(=O)(=O)c3cccc(N)n3)c(N3CC(C)CCC3C)n2)c1 (single isomer, unassigned) [Compound 1855, N-[(6-amino-2-pyridyl)sulfonyl]-2-(2,5-dimethyl-1-piperidyl)-6-(3-fluoro-5-isobutoxy-phenyl)pyridine-3-carboxamide]",+++ (“+++” means <3 uM)
4,"CC(C)COc1cc(F)cc(-c2ccc(C(=O)NS(=O)(=O)c3cccc(N)n3)c(N3CCC(C)C(C)C3)n2)c1 (single isomer, unassigned) [Compound 1863, N-[(6-amino-2-pyridyl)sulfonyl]-2-(3,4-dimethyl-1-piperidyl)-6-(3-fluoro-5-isobutoxy-phenyl)pyridine-3-carboxamide]",+++ (“+++” means <3 uM)
5,"CC(C)COc1cc(F)cc(-c2ccc(C(=O)NS(=O)(=O)c3cccc(N)n3)c(N3CC(C)CCC3C)n2)c1 (single isomer, unassigned) [Compound 1864, N-[(6-amino-2-pyridyl)sulfonyl]-2-(2,5-dimethyl-1-piperidyl)-6-(3-fluoro-5-isobutoxy-phenyl)pyridine-3-carboxamide]",+++ (“+++” means <3 uM)
6,"CC(C)COc1cc(F)cc(-c2ccc(C(=O)NS(=O)(=O)c3cccc(N)n3)c(N3CC(C)CCC3C)n2)c1 (single isomer, unassigned) [Compound 1993, N-[(6-amino-2-pyridyl)sulfonyl]-2-(2,5-dimethyl-1-piperidyl)-6-(3-fluoro-5-isobutoxy-phenyl)pyridine-3-carboxamide]",+++ (“+++” means <3 uM)

# Target: T1, F508del
# Assay: Protocol 2: FRET membrane potential optical assay (VIPR), identification of correction compounds
# Type: cell-based
# Details: F508del CFTR modulator activity; compounds of Table 1; read-out: EC30
# In short: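 FRET read-out (CC2-DMPE donor, DiSBAC2(3) voltage-sensitive acceptor) of membrane depolarization on VIPR II. Corrector candidates incubated 16 hrs at 37° C. with NIH3T3 cells expressing F508del; temperature correction at 27° C. as positive control; stimulation by 10 μM forskolin, 20 μM genistein, chloride-free gluconate bath.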
row,EC30,SMILES
1,< 3000 nM,CC1CN(c2ncccc2C(=O)NS(=O)(=O)c2cccc(Oc3cccc(C#N)c3)n2)C(C)(C)C1 (stereo not shown) [Compound 2725]
2,< 3000 nM,CCN(CC)c1cccc(S(=O)(=O)NC(=O)c2cccnc2N2CC(C)CC2(C)C)n1 (stereo not shown) [Compound 2726]
3,< 3000 nM,CC1CN(c2ncccc2C(=O)NS(=O)(=O)c2cccc(Oc3ccc4nonc4c3)n2)C(C)(C)C1 (stereo not shown) [Compound 2727]
4,< 3000 nM,COC(=O)c1ccc(Oc2cccc(S(=O)(=O)NC(=O)c3cccnc3N3CC(C)CC3(C)C)n2)cc1 (stereo not shown) [Compound 2728]
5,< 3000 nM,Cc1nc2cc(Oc3cccc(S(=O)(=O)NC(=O)c4cccnc4N4CC(C)CC4(C)C)n3)ccc2s1 (stereo not shown) [Compound 2729]
6,3000 to 10000 nM,CC(=O)c1ccc(Oc2cccc(S(=O)(=O)NC(=O)c3cccnc3N3CC(C)CC3(C)C)n2)cc1 (stereo not shown) [Compound 2730]
7,3000 to 10000 nM,Cc1cccc(Oc2cccc(S(=O)(=O)NC(=O)c3cccnc3N3CC(C)CC3(C)C)n2)n1 (stereo not shown) [Compound 2731]
8,3000 to 10000 nM,COC1CCN(c2cccc(S(=O)(=O)NC(=O)c3cccnc3N3CC(C)CC3(C)C)n2)CC1 (stereo not shown) [Compound 2732]
9,3000 to 10000 nM,CC1CN(c2ncccc2C(=O)NS(=O)(=O)c2cccc(Oc3ccc4c(c3)CCC4=O)n2)C(C)(C)C1 (stereo not shown) [Compound 2733]
10,3000 to 10000 nM,COCCCN(C)c1cccc(S(=O)(=O)NC(=O)c2cccnc2N2CC(C)CC2(C)C)n1 (stereo not shown) [Compound 2734]
11,3000 to 10000 nM,CC1CN(c2ncccc2C(=O)NS(=O)(=O)c2cccc(NCCc3ccncc3)n2)C(C)(C)C1 (stereo not shown) [Compound 2735]
12,3000 to 10000 nM,CC1CN(c2ncccc2C(=O)NS(=O)(=O)c2cccc(Oc3ccc(Cl)cn3)n2)C(C)(C)C1 (stereo not shown) [Compound 2736]
13,< 3000 nM,CC1CN(c2ncccc2C(=O)NS(=O)(=O)c2cccc(OC3CCOc4ccccc43)n2)C(C)(C)C1 (stereo not shown) [Compound 2737]
14,< 3000 nM,CC1CN(c2ncccc2C(=O)NS(=O)(=O)c2cccc(Oc3ccccc3N3CCCCC3)n2)C(C)(C)C1 (stereo not shown) [Compound 2738]
15,< 3000 nM,CC1CN(c2ncccc2C(=O)NS(=O)(=O)c2cccc(Oc3ccc(OC(C)(C)C)cc3)n2)C(C)(C)C1 (stereo not shown) [Compound 2739]
16,< 3000 nM,CC1CN(c2ncccc2C(=O)NS(=O)(=O)c2cccc(OCCc3cccc(F)c3)n2)C(C)(C)C1 (stereo not shown) [Compound 2740]
17,3000 to 10000 nM,CC#CCOc1cccc(S(=O)(=O)NC(=O)c2cccnc2N2CC(C)CC2(C)C)n1 (stereo not shown) [Compound 2741]
18,3000 to 10000 nM,CC1CN(c2ncccc2C(=O)NS(=O)(=O)c2cccc(OCCN)n2)C(C)(C)C1 (stereo not shown) [Compound 2742]
19,< 3000 nM,CC1CN(c2ncccc2C(=O)NS(=O)(=O)c2cccc(Nc3ccc(NC(=O)OC(C)(C)C)cc3)n2)C(C)(C)C1 (stereo not shown) [Compound 2743]
20,< 3000 nM,CC1CN(c2ncccc2C(=O)NS(=O)(=O)c2cccc(N(C)Cc3ccccc3Cl)n2)C(C)(C)C1 (stereo not shown) [Compound 2744]
21,< 3000 nM,CC1CN(c2ncccc2C(=O)NS(=O)(=O)c2cccc(N[C@H](C)C(C)(C)C)n2)C(C)(C)C1 (stereo partly shown) [Compound 2745]
22,< 3000 nM,CC(C)CN(C)c1cccc(S(=O)(=O)NC(=O)c2cccnc2N2CC(C)CC2(C)C)n1 (stereo not shown) [Compound 2746]
23,< 3000 nM,CC1CN(c2ncccc2C(=O)NS(=O)(=O)c2cccc(N3CCCCC3C)n2)C(C)(C)C1 (stereo not shown) [Compound 2747]
